Results reported in ChEMBL document CHEMBL4396865, “Current advances of triazole alcohols derived from fluconazole: Design, in vitro and in silico studies” (2019).
≈ marks a conversion by molar mass, not a printed value.

Assays:
Format in all cases: functional
Candida albicans [1] = experiment: Antifungal activity against Candida albicans CA98001
Candida albicans [2] = experiment: Antifungal activity against Candida albicans DSY735
Candida albicans [3] = experiment: Antifungal activity against Candida albicans CAAL-74
Pichia kudriavzevii [4] = experiment: Antifungal activity against Candida krusei CK506
Pichia kudriavzevii [5] = experiment: Antifungal activity against Candida krusei CK8
Nakaseomyces glabratus = experiment: Antifungal activity against Candida glabrata CG468
Candida parapsilosis [6] = experiment: Antifungal activity against Candida parapsilosis CAPA1
Candida parapsilosis [7] = experiment: Antifungal activity against Candida parapsilosis CAPA2
Aspergillus fumigatus [8] = experiment: Antifungal activity against Aspergillus fumigatus AF98003
Candida albicans [9] = experiment: Antifungal activity against Candida albicans; conditions: Candida albicans
Candida parapsilosis [10] = experiment: Antifungal activity against Candida parapsilosis; conditions: Lodderomyces parapsilosis
Candida tropicalis = experiment: Antifungal activity against Candida tropicalis; conditions: Candida tropicalis
Kluyveromyces marxianus = experiment: Antifungal activity against Candida kefyr; conditions: Kluyveromyces marxianus
Cryptococcus neoformans = experiment: Antifungal activity against Cryptococcus neoformans; conditions: Cryptococcus neoformans
Trichophyton rubrum = experiment: Antifungal activity against Trichophyton rubrum; conditions: Trichophyton rubrum
Aspergillus fumigatus [11] = experiment: Antifungal activity against Aspergillus fumigatus; conditions: Aspergillus fumigatus
Candida albicans [12] = experiment: Antifungal activity against Candida albicans ATCC 76615 after 24 hrs by microbroth dilution method; conditions: ATCC 76615, 24 h
Candida albicans [13] = experiment: Potency index, ratio of fluconazole MIC to test compound MIC for Candida albicans
[14] = Candida albicans, CA98001, read-out: MIC
[15] = Candida albicans, DSY735, read-out: MIC
[16] = Candida albicans, CAAL-74, read-out: MIC
[17] = Pichia kudriavzevii, CK506, read-out: MIC
[18] = Pichia kudriavzevii, CK8, read-out: MIC
[19] = Nakaseomyces glabratus, CG468, read-out: MIC
[20] = Lodderomyces parapsilosis, CAPA1, read-out: MIC
[21] = Lodderomyces parapsilosis, CAPA2, read-out: MIC

SMILES | MIC (Candida albicans [1]; [14]) [µg/mL] | MIC (Candida albicans [2]; [15]) [µg/mL] | MIC (Candida albicans [3]; [16]) [µg/mL] | MIC (Pichia kudriavzevii [4]; [17]) [µg/mL] | MIC (Pichia kudriavzevii [5]; [18]) [µg/mL] | MIC (Nakaseomyces glabratus; [19]) [µg/mL] | MIC (Candida parapsilosis [6]; [20]) [µg/mL] | MIC (Candida parapsilosis [7]; [21]) [µg/mL] | MIC (Aspergillus fumigatus [8]) [µg/mL] | also measured
CC(C)CNS(=O)(=O)c1ccc(CN(C)CC(O)(Cn2cncn2)c2ccc(F)cc2F)cc1 (stereo not drawn) | 0.001 to 0.069 (≈ 0.00203 to 0.14 µM) | 0.001 to 0.069 (≈ 0.00203 to 0.14 µM) | 0.001 to 0.069 (≈ 0.00203 to 0.14 µM) | 0.001 to 0.069 (≈ 0.00203 to 0.14 µM) | 0.001 to 0.069 (≈ 0.00203 to 0.14 µM) | 0.001 to 0.069 (≈ 0.00203 to 0.14 µM) | 0.001 to 0.069 (≈ 0.00203 to 0.14 µM) | 0.001 to 0.069 (≈ 0.00203 to 0.14 µM) | 0.767 to 3.57 (≈ 1.55 to 7.23 µM) | 
CC(C)NS(=O)(=O)c1ccc(CN(C)CC(O)(Cn2cncn2)c2ccc(F)cc2F)cc1 (stereo not drawn) | 0.001 to 0.069 (≈ 0.00209 to 0.144 µM) | 0.001 to 0.069 (≈ 0.00209 to 0.144 µM) | 0.001 to 0.069 (≈ 0.00209 to 0.144 µM) | 0.001 to 0.069 (≈ 0.00209 to 0.144 µM) | 0.001 to 0.069 (≈ 0.00209 to 0.144 µM) | 0.001 to 0.069 (≈ 0.00209 to 0.144 µM) | 0.001 to 0.069 (≈ 0.00209 to 0.144 µM) | 0.001 to 0.069 (≈ 0.00209 to 0.144 µM) | 0.767 to 3.57 (≈ 1.6 to 7.44 µM) | 
OC(CN1CCC(OCc2ccc(F)cc2)CC1)(Cn1cncn1)c1ccc(F)cc1F (stereo not drawn) |  |  |  |  |  |  |  |  |  | MIC80 (Candida albicans [9]): 0.01 µM (≈ 0.00446 µg/mL); MIC80 (Candida parapsilosis [10]): 0.01 to 2.33 µM (≈ 0.00446 to 1.04 µg/mL); MIC80 (Candida tropicalis): 0.01 to 2.33 µM (≈ 0.00446 to 1.04 µg/mL); MIC80 (Kluyveromyces marxianus): 0.01 to 2.33 µM (≈ 0.00446 to 1.04 µg/mL); MIC80 (Cryptococcus neoformans): 0.01 to 2.33 µM (≈ 0.00446 to 1.04 µg/mL); MIC80 (Trichophyton rubrum): 0.03 to 0.15 µM (≈ 0.0134 to 0.067 µg/mL); MIC80 (Aspergillus fumigatus [11]): 0.55 to 2.33 µM (≈ 0.246 to 1.04 µg/mL); MIC80 (Candida albicans [12]): 0.01 to 2.33 µM (≈ 0.00446 to 1.04 µg/mL); Ratio (Candida albicans [13]): 82
OC(CN1CCC(OCc2ccccc2F)CC1)(Cn1cncn1)c1ccc(F)cc1F (stereo not drawn) |  |  |  |  |  |  |  |  |  | MIC80 (Candida albicans [9]): 0.01 to 0.56 µM (≈ 0.00446 to 0.25 µg/mL); MIC80 (Candida parapsilosis [10]): 0.01 to 0.56 µM (≈ 0.00446 to 0.25 µg/mL); MIC80 (Candida tropicalis): 0.01 to 0.56 µM (≈ 0.00446 to 0.25 µg/mL); MIC80 (Kluyveromyces marxianus): 0.01 to 0.56 µM (≈ 0.00446 to 0.25 µg/mL); MIC80 (Cryptococcus neoformans): 0.01 to 0.56 µM (≈ 0.00446 to 0.25 µg/mL); MIC80 (Trichophyton rubrum): 0.01 to 0.56 µM (≈ 0.00446 to 0.25 µg/mL); MIC80 (Aspergillus fumigatus [11]): 0.01 to 0.56 µM (≈ 0.00446 to 0.25 µg/mL); MIC80 (Candida albicans [12]): 0.01 to 0.56 µM (≈ 0.00446 to 0.25 µg/mL); Ratio (Candida albicans [13]): 82
OC(CN1CCC(OCc2ccc(Cl)cc2Cl)CC1)(Cn1cncn1)c1ccc(F)cc1F (stereo not drawn) |  |  |  |  |  |  |  |  |  | MIC80 (Candida albicans [9]): 0.01 µM (≈ 0.00497 µg/mL); MIC80 (Candida parapsilosis [10]): 0.01 to 2.33 µM (≈ 0.00497 to 1.16 µg/mL); MIC80 (Candida tropicalis): 0.01 to 2.33 µM (≈ 0.00497 to 1.16 µg/mL); MIC80 (Kluyveromyces marxianus): 0.01 to 2.33 µM (≈ 0.00497 to 1.16 µg/mL); MIC80 (Cryptococcus neoformans): 0.01 to 2.33 µM (≈ 0.00497 to 1.16 µg/mL); MIC80 (Trichophyton rubrum): 0.03 to 0.15 µM (≈ 0.0149 to 0.0746 µg/mL); MIC80 (Aspergillus fumigatus [11]): 0.55 to 2.33 µM (≈ 0.274 to 1.16 µg/mL); MIC80 (Candida albicans [12]): 0.01 to 2.33 µM (≈ 0.00497 to 1.16 µg/mL); Ratio (Candida albicans [13]): 82
CN(Cc1ccc(S(=O)(=O)Nc2ccccc2)cc1)CC(O)(Cn1cncn1)c1ccc(F)cc1F (stereo not drawn) | 0.001 to 0.069 (≈ 0.00195 to 0.134 µM) | 0.001 to 0.069 (≈ 0.00195 to 0.134 µM) | 0.001 to 0.069 (≈ 0.00195 to 0.134 µM) | 0.001 to 0.069 (≈ 0.00195 to 0.134 µM) | 0.001 to 0.069 (≈ 0.00195 to 0.134 µM) | 0.001 to 0.069 (≈ 0.00195 to 0.134 µM) | 0.001 to 0.069 (≈ 0.00195 to 0.134 µM) | 0.001 to 0.069 (≈ 0.00195 to 0.134 µM) | 0.767 to 3.57 (≈ 1.49 to 6.95 µM) | 
CN(Cc1ccc(S(N)(=O)=O)cc1)CC(O)(Cn1cncn1)c1ccc(F)cc1F (stereo not drawn) | 0.001 to 0.069 (≈ 0.00229 to 0.158 µM) | 0.001 to 0.069 (≈ 0.00229 to 0.158 µM) | 0.001 to 0.069 (≈ 0.00229 to 0.158 µM) | 0.001 to 0.069 (≈ 0.00229 to 0.158 µM) | 0.001 to 0.069 (≈ 0.00229 to 0.158 µM) | 0.001 to 0.069 (≈ 0.00229 to 0.158 µM) | 0.001 to 0.069 (≈ 0.00229 to 0.158 µM) | 0.001 to 0.069 (≈ 0.00229 to 0.158 µM) | 0.767 to 3.57 (≈ 1.75 to 8.16 µM) | 
CCCNS(=O)(=O)c1ccc(CN(C)CC(O)(Cn2cncn2)c2ccc(F)cc2F)cc1 (stereo not drawn) | 0.001 to 0.069 (≈ 0.00209 to 0.144 µM) | 0.001 to 0.069 (≈ 0.00209 to 0.144 µM) | 0.001 to 0.069 (≈ 0.00209 to 0.144 µM) | 0.001 to 0.069 (≈ 0.00209 to 0.144 µM) | 0.001 to 0.069 (≈ 0.00209 to 0.144 µM) | 0.001 to 0.069 (≈ 0.00209 to 0.144 µM) | 0.001 to 0.069 (≈ 0.00209 to 0.144 µM) | 0.001 to 0.069 (≈ 0.00209 to 0.144 µM) | 0.767 to 3.57 (≈ 1.6 to 7.44 µM) | 
CN(Cc1ccc(S(=O)(=O)Nc2ccc([N+](=O)[O-])cc2)cc1)CC(O)(Cn1cncn1)c1ccc(F)cc1F (stereo not drawn) | 0.001 to 0.069 (≈ 0.00179 to 0.124 µM) | 0.001 to 0.069 (≈ 0.00179 to 0.124 µM) | 0.001 to 0.069 (≈ 0.00179 to 0.124 µM) | 0.001 to 0.069 (≈ 0.00179 to 0.124 µM) | 0.001 to 0.069 (≈ 0.00179 to 0.124 µM) | 0.001 to 0.069 (≈ 0.00179 to 0.124 µM) | 0.001 to 0.069 (≈ 0.00179 to 0.124 µM) | 0.001 to 0.069 (≈ 0.00179 to 0.124 µM) | 0.767 to 3.57 (≈ 1.37 to 6.39 µM) | 
CC(C)c1ccc(NS(=O)(=O)c2ccc(CN(C)CC(O)(Cn3cncn3)c3ccc(F)cc3F)cc2)cc1 (stereo not drawn) | 0.001 to 0.069 (≈ 0.0018 to 0.124 µM) | 0.001 to 0.069 (≈ 0.0018 to 0.124 µM) | 0.001 to 0.069 (≈ 0.0018 to 0.124 µM) | 0.001 to 0.069 (≈ 0.0018 to 0.124 µM) | 0.001 to 0.069 (≈ 0.0018 to 0.124 µM) | 0.001 to 0.069 (≈ 0.0018 to 0.124 µM) | 0.001 to 0.069 (≈ 0.0018 to 0.124 µM) | 0.001 to 0.069 (≈ 0.0018 to 0.124 µM) | 0.767 to 3.57 (≈ 1.38 to 6.42 µM) | 
CN(Cc1ccc(-c2ccc(C#N)cc2)cc1)CC(O)(Cn1cncn1)c1ccc(F)cc1F (stereo not drawn) |  |  |  |  |  |  |  |  | 2.76 (≈ 6.01 µM) | MIC (Candida albicans [1]): 0.001 to 1.32 µg/mL; MIC (Candida albicans [2]): 0.001 to 1.32 µg/mL; MIC (Candida albicans [3]): 0.001 to 1.32 µg/mL; MIC (Pichia kudriavzevii [4]): 0.001 to 1.32 µg/mL; MIC (Pichia kudriavzevii [5]): 0.001 to 1.32 µg/mL; MIC (Nakaseomyces glabratus): 0.001 to 1.32 µg/mL; MIC (Candida parapsilosis [6]): 0.001 to 1.32 µg/mL; MIC (Candida parapsilosis [7]): 0.001 to 1.32 µg/mL
CCCc1ccc(NS(=O)(=O)c2ccc(CN(C)CC(O)(Cn3cncn3)c3ccc(F)cc3F)cc2)cc1 (stereo not drawn) | 0.001 to 0.069 (≈ 0.0018 to 0.124 µM) | 0.001 to 0.069 (≈ 0.0018 to 0.124 µM) | 0.001 to 0.069 (≈ 0.0018 to 0.124 µM) | 0.001 to 0.069 (≈ 0.0018 to 0.124 µM) | 0.001 to 0.069 (≈ 0.0018 to 0.124 µM) | 0.001 to 0.069 (≈ 0.0018 to 0.124 µM) | 0.001 to 0.069 (≈ 0.0018 to 0.124 µM) | 0.001 to 0.069 (≈ 0.0018 to 0.124 µM) | 0.767 to 3.57 (≈ 1.38 to 6.42 µM) | 
